Reference: patent publication US20020086835A1, “Use of adenosine deaminase inhibitors to treat systemic inflammatory response syndrome” (priority 2000, published 2002)
Values joined by “and” are separate entries in the source; they are usually repeats but may differ in a detail not shown here. Equal entries are not always repeated. “Also recorded” adds a separate entry of the source.

Experiments:
TNF-α = assay: Serum TNF-α by ELISA in rats with chronic peritoneal sepsis (200 mg/kg cecal slurry ip); assay type: in vivo, rat; conditions: septic rats
Protocol: (§1) Studies were conducted to determine if manipulation of adenosine-mediated events would result in alterations in the TNF-α response in this model. At the time of sepsis induction, rats were treated in one of four ways. One group received only 0.9% normal saline as a vehicle control (No Rx; n=6). […] The third group received the adenosine deaminase inhibitor, erythro-9-(2-hydroxy-3-nonyl)adenine (EHNA; 1 μmole/kg+1 μmole/kg/hr; iv; n=3). A fourth group received the adenosine receptor antagonist 8-sulfophenyltheophylline (SPT; 400 μg/kg/8 hours; n=5).
(§2) Sepsis was induced under pentobarbital anesthesia (50 mg/kg) in each rat by intraperitoneal (ip) injection of 200 mg/kg rat cecal contents mixed as a slurry in 5% dextrose in water (D5W). […] Non-septic controls received an equivalent volume ip injection of D5W. Polyethylene catheters (Intramedic PE-50, Baxter) were inserted into the right internal jugular vein and right carotid artery. The jugular catheter was used for venous access (drug infusions; volume replacement, etc). The carotid catheter was used to obtain arterial blood samples, and to monitor arterial blood pressure and heart rate. The catheters were secured in their respective vessels, tunneled subcutaneously to exit in the interscapular region, and filled with heparinized saline (50 units/ml 0.9% normal saline). Incisions were closed in layers using 3-0 silk. Rats were allowed to recover from anesthetic and provided food and water ad libitum,
Serum and tissue tumor necrosis factor-α (TNF-α) concentrations were determined by enzyme-linked immunosorbant assay. Samples of serum, liver, and spleen were collected, rapidly weighed, and frozen in liquid nitrogen. On the day of assay, tissues are added to labeled tubes containing lysis buffer (volume=10 ml/gram wt. with 1:10 dilution) and kept on ice. The lysis buffer is 20 mM Tris (pH 7.4) containing […] phenylmethylsulfonylflouride (PMSF), […] leupeptin, 0.7 g/ml pepstatin, and 2.0 g/ml aprotinin to inhibit proteases. Samples were immediately homogenized using five 3 see bursts, washing grinding pistol (3×) between samples with phosphate buffered saline. Samples are then centrifuged for 20 min at 2200 RPM, 4° C. The supernatant was removed and used for TNF-α measurements. Briefly, each microplate well contained 50 μl of assay diluent. To each well, 50 μl of standard, control, or serum/homogenate supernatant sample were added and mixed on an orbital plate shaker. Plates were incubated at room temperature for 2 hours. Each well was then aspirated and washed with wash buffer 4 times. After final aspiration of wash buffer, 100 μl of rat TNF-α conjugate was added to each well. Wells were then covered and incubated for 2 hours at room temperature. At the end of the incubation, the aspiration/wash procedure was repeated 4 times, after which 100 μl of stabilized chromogen solution was added to each well. Next, plates were incubated for 45 minutes at room temperature in a dark area. After this final incubation period, 100 μl stopping solution was added to each well. Optical density of each well at […] was determined within 30 minutes using a Biotek Instruments EL312e microtiter plate reader. Concentrations of TNF-α were calculated from the standard curves.
At the time of sepsis induction, rats were treated in one of three ways. One group received only 0.9% normal saline as a vehicle control (VEH, n=6, where n is the number of rats). […] A third group received the adenosine receptor antagonist, 8-sulfophenyltheo-phylline (SPT; 400 μg/kg/8 h; n=5). Serum TNF-α (pg/ml) was determined at 4 and 24 hours after sepsis induction by ELISA.
Male SD rats (350-400 g) were made septic by IP introduction of a 200 mg/kg cecal slurry. […] TNF-α (pg/ml) was determined at 4 and 24 hours after sepsis induction by ELISA.

adenosine receptors = assay: Regional vascular resistance by radiolabelled microspheres 24 hours after sepsis induction; assay type: in vivo, rat; conditions: septic rats
Protocol: Systemic vascular responses were examined 24 hours after induction of sepsis in the presence or absence of adenosine receptor blockade in septic and non-septic rats using radiolabelled microspheres. For these experiments, the surgical procedure involving vascular access was modified to include a catheter in the left ventricle of the heart (via the carotid artery), and a catheter in the tail artery (Intramedic PE-50, Baxter) to permit reference blood withdrawal and blood pressure monitoring. Regional blood flows were determined using radiolabelled microspheres. The microspheres ([…] New England Nuclear, Boston), labeled with one of four isotopes (^46Sc, ^85Sr, ^95Nb, ^141Ce), were mixed in 0.9% normal saline with 0.01 % Tween-80 added to prevent aggregation. The microspheres were adjusted to provide a minimum of 400 microspheres per tissue sample, and represented approximately 100,000-250,000 spheres per injection. The specific Isotopes and their order of injection were randomized in each experiment. with each injection representing a volume of 0.4 ml/injectate. The microspheres were sonicated for a minimum of 30 minutes, and vortexed vigorously for at least 30 seconds prior to injection. A reference withdrawal sample was taken at 0.33 ml/min from the tail artery catheter using a mechanical pump (Harvard Model 22). The reference withdrawal was started 10 seconds prior to injecting the isotopes, and continued for 150 seconds. […] Wet weights were obtained and all tissues were counted in a gamma spectrophotometer (Beckman 9000). Gamma activity in the injectate vials was counted prior to the experiments. Actual injected amounts for each isotope were calculated by subtracting any isotope counts remaining in the vials, syringes, and catheters used for injection. Cardiac output (CO) was determined by dividing the total injectate counts for any given isotope by the counts in the reference sample and multiplying by the fixed withdrawal rate of the reference sample. The results for cardiac output are expressed as ml/min. Tissue counts attributed to each isotope were determined after subtracting the overlap of energy spectra from higher energy isotopes (Compton back-scatter). Individual tissue blood flows were determined by dividing the counts obtained in the tissue by the reference withdrawal counts and multiplying by the reference withdrawal rate. Tissue blood flows were then normalized to wet weight was calculated by adding the individual tissue blood flows of the stomach, small intestine, cecum, colon, pancreas, hepatic artery and spleen, and dividing by the liver weight. Regional tissue vascular resistances were calculated from regional blood flows and arterial blood pressure, according to the equation: […]

septic rats [1] = assay: Survival of septic rats to day 3; assay type: in vivo, rat; conditions: pentostatin 5 mg/kg/12 h; 8-SPT 400 μg/kg/8 h; 3 days post-sepsis
Protocol: as §1
as §2, with “The catheters were secured in their respective vessels, tunneled subcutaneously to exit in the interscapular region, and filled with heparinized saline (50 units/ml 0.9% normal saline). Incisions were closed in layers using 3-0 silk. Rats were allowed to recover from anesthetic and provided food and water ad libitum,” left out
(§3) At the time of sepsis induction, rats were treated in one of three ways. […] Serum TNF-α (pg/ml) was determined at 4 and 24 hours after sepsis induction by ELISA.

septic rats [2] = assay: Blood pressure and heart rate in septic rats; conditions: chronic treatment
Protocol: as §1
as §2, with “The catheters were secured in their respective vessels, tunneled subcutaneously to exit in the interscapular region, and filled with heparinized saline (50 units/ml 0.9% normal saline). Incisions were closed in layers using 3-0 silk. Rats were allowed to recover from anesthetic and provided food and water ad libitum,” left out
as §3

septic rats [3] = assay: Capillary leakage: examination of peritoneal cavity and bowel of septic rats; assay type: in vivo, rat
adenosine deaminase = molecular target: T1, adenosine deaminase (Homo sapiens, UniProt P00813); conditions: FIG. 10 legend; cited from earlier work
T1 sequence (P00813 1-363): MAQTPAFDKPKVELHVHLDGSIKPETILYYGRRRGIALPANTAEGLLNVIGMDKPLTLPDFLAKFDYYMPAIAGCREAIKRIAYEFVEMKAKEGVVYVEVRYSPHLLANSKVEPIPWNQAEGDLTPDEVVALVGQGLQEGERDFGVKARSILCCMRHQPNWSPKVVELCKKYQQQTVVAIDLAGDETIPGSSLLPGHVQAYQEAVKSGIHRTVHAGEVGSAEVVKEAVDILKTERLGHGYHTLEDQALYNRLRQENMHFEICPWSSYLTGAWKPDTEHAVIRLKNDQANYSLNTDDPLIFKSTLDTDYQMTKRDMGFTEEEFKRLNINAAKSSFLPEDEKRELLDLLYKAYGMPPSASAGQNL

xanthine oxidase = molecular target: T2, xanthine oxidase (Rattus norvegicus, UniProt P22985); conditions: 10 nM, hypoxic perfused rat hearts; cited from earlier work
T2 construct: host or cells: isolated perfused rat heart
T2 sequence (P22985 whole entry, the tested form may be a part): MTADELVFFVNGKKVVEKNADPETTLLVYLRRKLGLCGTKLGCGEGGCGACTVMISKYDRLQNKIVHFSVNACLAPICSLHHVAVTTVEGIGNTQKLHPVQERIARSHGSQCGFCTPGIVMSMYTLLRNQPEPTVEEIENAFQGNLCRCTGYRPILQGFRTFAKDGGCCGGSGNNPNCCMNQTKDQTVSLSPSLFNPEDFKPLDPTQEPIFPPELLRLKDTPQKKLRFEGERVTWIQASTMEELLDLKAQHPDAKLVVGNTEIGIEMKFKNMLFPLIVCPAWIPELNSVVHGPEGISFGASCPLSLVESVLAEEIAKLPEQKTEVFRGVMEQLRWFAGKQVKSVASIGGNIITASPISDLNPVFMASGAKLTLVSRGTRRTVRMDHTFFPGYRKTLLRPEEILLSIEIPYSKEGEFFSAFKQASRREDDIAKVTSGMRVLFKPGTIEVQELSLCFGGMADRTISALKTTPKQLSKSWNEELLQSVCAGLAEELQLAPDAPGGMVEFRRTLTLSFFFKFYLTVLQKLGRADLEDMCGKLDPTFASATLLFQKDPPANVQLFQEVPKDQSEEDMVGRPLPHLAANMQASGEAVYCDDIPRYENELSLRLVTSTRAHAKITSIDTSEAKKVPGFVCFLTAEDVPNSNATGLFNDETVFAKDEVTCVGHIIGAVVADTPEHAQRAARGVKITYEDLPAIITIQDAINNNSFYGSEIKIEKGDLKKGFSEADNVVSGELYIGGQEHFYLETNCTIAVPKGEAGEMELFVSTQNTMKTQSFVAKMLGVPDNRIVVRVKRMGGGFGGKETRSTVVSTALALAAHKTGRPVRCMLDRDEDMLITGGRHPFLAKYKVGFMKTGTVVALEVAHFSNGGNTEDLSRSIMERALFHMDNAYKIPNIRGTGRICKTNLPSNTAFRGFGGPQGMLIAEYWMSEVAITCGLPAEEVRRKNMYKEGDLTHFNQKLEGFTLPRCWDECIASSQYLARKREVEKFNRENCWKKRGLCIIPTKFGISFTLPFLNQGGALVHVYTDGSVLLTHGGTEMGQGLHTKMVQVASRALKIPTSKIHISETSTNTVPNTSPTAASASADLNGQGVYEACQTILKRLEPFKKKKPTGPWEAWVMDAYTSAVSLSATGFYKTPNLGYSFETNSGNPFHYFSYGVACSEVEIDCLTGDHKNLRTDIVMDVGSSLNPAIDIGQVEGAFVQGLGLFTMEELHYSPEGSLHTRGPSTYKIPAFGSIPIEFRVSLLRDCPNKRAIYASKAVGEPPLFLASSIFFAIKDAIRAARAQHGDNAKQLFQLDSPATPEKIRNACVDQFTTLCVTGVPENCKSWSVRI

In the case of 8-sulfophenyltheophylline [8-SPT], the “Effect on serum TNF-α response to sepsis at 4 hours” value (TNF-α; 4 hours, versus saline-treated septic group) is reported as “not at 4 hours”, the “Effect on serum TNF-α response to sepsis at 24 hours” value (TNF-α; 24 hours, versus saline-treated septic group) is reported as “amplified the response” and the “Serum TNF-α at 4 hours after sepsis induction” value (TNF-α; treated at time of sepsis induction, 4 hours) is reported as 1167 ± 428 pg/mL. The “Serum TNF-α at 24 hours after sepsis induction” value (TNF-α; treated at time of sepsis induction, 24 hours) was 2479 ± 875 pg/mL, the “Brain (cerebral) vascular resistance” value (adenosine receptors) was “exception of changes in cerebral vascular resistance” and the “Septic rats surviving to day 3” value (septic rats [1]) was 2 of the 5 and 1 of 5. The “Blood pressures or heart rates versus saline-treated septic rats” value (septic rats [2]) was “neither the adenosine deaminase inhibition nor the 8-SPT groups were blood pressures or heart rates significantly different; also recorded: neither the groups treated with pentostatin nor the groups treated with 8-SPT were blood pressures or heart rates significantly different”, the Capillary leakage (septic rats [3]) was “exacerbation of capillary leakage” and the Small bowel hemorrhage (septic rats [3]) was “small bowel hemorrhaging was evident”. For the same compound, the “Volume of fluid in the peritoneal cavity” value (septic rats [3]; untreated 2-3 ml) was 3 to 5 mL.

In the case of `OCC1OC(n2cnc3c2N=CNCC3O)C(F)C1O` (stereo not shown) [2′-deoxy-2′-fluorocoformycin], the “Enzyme-inhibitory activity against adenosine deaminase” value (adenosine deaminase) is given as “high enzyme-inhibitory activities”.

For `OC[C@H]1O[C@@H](n2cnc3c2N=CNC[C@@H]3O)[C@H](F)[C@@H]1O` [2′-deoxy-8-epi-2′-fluorocoformycin], the “Enzyme-inhibitory activity against adenosine deaminase” value (adenosine deaminase) is listed as “high enzyme-inhibitory activities”.

With `Cn1c(=O)c2[nH]c(-c3ccccc3)nc2n(C)c1=O` [8-PTH, 8-phenyltheophylline] the “Brain (cerebral) vascular resistance” value (adenosine receptors) was “caused increases”, the “Skeletal muscle vascular resistance” value (adenosine receptors) was “caused increases” and the “Total hepato-splanchnic vascular resistance” value (adenosine receptors) was “caused increases”.

In the case of `Oc1ncnc2[nH]ncc12` [Allopurinol], the Uric acid production (xanthine oxidase) is given as “below detectable levels”.
